The results in this text go back to PubChem BioAssay AID1745844 (Carcinogenic Potency Database (CPDB), 2022).

The source made the active and inactive calls. How the calls were made is not given here.

This series has as its system rodent lifetime carcinogenesis bioassay, tumor incidence TD50. Nature of the series: carcinogenic potency in animals, long-term in vivo studies, CPDB compilation (AID 1745844).

Usually TD50 stands for the dose at which the toxic effect under study appears in half of the subjects. On to `[O]=[Cr](=[O])([OH])[O][Cr](=[O])(=[O])[OH]`, for which the TD50 by setting is: (rat, strain Wistar, males, inhaled, site: any site (literature study), lesion: several types, types named in the paper, dosed 78 weeks, study length 130 weeks) 0.875 mg/kg/day; (rat, strain Wistar, males, inhaled, site: liver, lesion: malignant tumor, dosed 78 weeks, study length 130 weeks) 14.4 mg/kg/day; (rat, strain Wistar, males, inhaled, site: lung, lesion: adenocarcinoma, dosed 78 weeks, study length 130 weeks) 7.07 mg/kg/day; (rat, strain Wistar, males, inhaled, site: lung, lesion: adenoma, dosed 78 weeks, study length 130 weeks) 14.4 mg/kg/day; (rat, strain Wistar, males, inhaled, site: lung, lesion: several types, types named in the paper, dosed 78 weeks, study length 130 weeks) 4.64 mg/kg/day; (rat, strain Wistar, males, inhaled, site: pharynx, lesion: squamous-cell carcinoma, dosed 78 weeks, study length 130 weeks) 14.4 mg/kg/day.

`Nc1ccc(Cc2ccc(N)c(Cl)c2)cc1Cl`: the TD50 by setting is: (mouse, strain CD-1 HaM/ICR, females, in feed, site: any site (literature study), lesion: several types, types named in the paper, dosed 77 weeks, study length 90 weeks) 52.8 mg/kg/day; (mouse, strain CD-1 HaM/ICR, females, in feed, site: liver, lesion: hepatoma, dosed 77 weeks, study length 90 weeks) 66.6 mg/kg/day; (mouse, strain CD-1 HaM/ICR, females, in feed, site: liver, lesion: several types, types named in the paper, dosed 77 weeks, study length 90 weeks) 66.6 mg/kg/day; (mouse, strain CD-1 HaM/ICR, females, in feed, site: lung, lesion: several types, types named in the paper, dosed 77 weeks, study length 90 weeks) 556 mg/kg/day (inactive); (mouse, strain CD-1 HaM/ICR, males, in feed, site: any site (literature study), lesion: several types, types named in the paper, dosed 77 weeks, study length 94 weeks) 97.9 mg/kg/day; (mouse, strain CD-1 HaM/ICR, males, in feed, site: liver, lesion: several types, types named in the paper, dosed 77 weeks, study length 94 weeks) 471 mg/kg/day. The TD50 reads like this: (mouse, strain CD-1 HaM/ICR, males, in feed, site: lung, lesion: several types, types named in the paper, dosed 77 weeks, study length 94 weeks) 342 mg/kg/day (inactive); (rat, strain Charles River CD (Sprague-Dawley), males, in feed, site: any site (literature study), lesion: several types, types named in the paper, dosed 77 weeks, study length 98 weeks) 33.4 mg/kg/day; (rat, strain Charles River CD (Sprague-Dawley), males, in feed, site: liver, lesion: several types, types named in the paper, dosed 77 weeks, study length 98 weeks) 70.1 mg/kg/day.

For `CNC[C@H](O)c1ccc(O)c(O)c1`, the TD50 runs as follows: (mouse, strain B6C3F1, females, inhaled, site: liver, lesion: hepatocellular adenoma + hepatocellular carcinoma + neoplastic nodule, dosed 104 weeks, study length 107 weeks) 9.74 mg/kg/day; (mouse, strain B6C3F1, females, inhaled, site: uterus, lesion: endometrial stromal polyp + endometrial stromal sarcoma, dosed 104 weeks, study length 107 weeks) 6.86 mg/kg/day; (mouse, strain B6C3F1, females, inhaled, site: uterus, lesion: endometrial stromal polyp, dosed 104 weeks, study length 107 weeks) 8.52 mg/kg/day; (rat, strain Fischer 344, males, inhaled, site: any site (literature study), lesion: several types, types named in the paper, dosed 103 weeks, study length 105 weeks) 4.7 mg/kg/day.
